Where a SMILES comes first, the peptide text is derived from it.

The target of assay [1] is Wnt-responsive promoter (TCF/LEF). The assay is described as follows: Wnt-dependent luciferase reporter assay. In kind it is cell-based, murine. As for the experimental part:
The luciferase reporter assay is commonly used as a tool to study gene expression at the transcriptional level. Peptides from libraries described herein were characterized for ability to suppress transcription in cells with luciferase expression controlled by a Wnt-responsive promoter. Peptides were added to cells transfected with luciferase gene downstream of a Wnt-responsive promoter. Cells were stimulated with Wnt3a protein and incubated with peptides from libraries described herein. Luminescence was recorded to determine the peptides with the highest β-catenin-inhibiting activity. EC50 values were calculated based on the inhibition of luminescence and expressed as concentration (uM) in Table 5.
Peptides were assessed for their ability to inhibit Wnt signaling. Murine 3T3 fibroblasts that express luciferase under a Wnt-responsive promoter (TCF/LEF) (Enzo Life Sciences, Farmingdale, NY) were stimulated with Wnt3a in the presence of increasing concentrations of peptide inhibitor (Hit 1: SEQ ID NO:217, Hit 2: SEQ ID NO:224, Hit 3: SEQ ID NO:228, Hit 4: SEQ ID NO:227, Hit 5: SEQ ID NO:220, Hit 6: SEQ ID NO:168. Hit 7: SEQ ID NO:226) or with vehicle control (FIG. 2A).

The target of assay [2] is T1, β-catenin (Homo sapiens, UniProt P35222).
T1 sequence (P35222 1-781): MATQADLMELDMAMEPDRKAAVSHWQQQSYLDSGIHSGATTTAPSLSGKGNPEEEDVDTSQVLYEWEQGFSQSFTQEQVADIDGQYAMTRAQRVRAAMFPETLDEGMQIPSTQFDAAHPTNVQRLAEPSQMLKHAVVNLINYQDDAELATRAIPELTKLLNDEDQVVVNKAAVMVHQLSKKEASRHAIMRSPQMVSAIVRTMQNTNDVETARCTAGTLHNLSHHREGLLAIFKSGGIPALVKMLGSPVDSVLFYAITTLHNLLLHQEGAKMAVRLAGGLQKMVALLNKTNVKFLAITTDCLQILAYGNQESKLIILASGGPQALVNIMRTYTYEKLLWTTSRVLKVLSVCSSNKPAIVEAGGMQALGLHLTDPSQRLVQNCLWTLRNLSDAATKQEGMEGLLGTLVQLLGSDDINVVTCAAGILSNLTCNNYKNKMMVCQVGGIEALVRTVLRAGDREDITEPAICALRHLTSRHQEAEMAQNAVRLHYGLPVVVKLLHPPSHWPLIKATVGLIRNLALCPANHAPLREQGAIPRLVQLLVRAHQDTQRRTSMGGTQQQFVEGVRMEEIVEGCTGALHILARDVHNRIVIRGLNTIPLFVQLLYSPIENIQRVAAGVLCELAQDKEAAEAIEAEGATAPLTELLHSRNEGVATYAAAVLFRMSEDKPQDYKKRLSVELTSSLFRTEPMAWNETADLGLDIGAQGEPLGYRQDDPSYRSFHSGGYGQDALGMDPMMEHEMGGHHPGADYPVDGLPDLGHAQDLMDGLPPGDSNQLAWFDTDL
The assay is described as follows: KD50 measurement using competitive fluorescence polarization (FP) with labelled TCF4. In kind it is binding. The conditions noted are these: fluorescence polarization, β-catenin; for Kd: read-out: β-Cat FP KD. The method, boiled down: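 First, β-catenin at 100 nM is mixed with 5 nM labelled TCF4 at room temperature. Next, compound is added across serial dilutions (10 nM to 30 uM). Finally, fluorescence polarization is measured (ex 470 nm, em 520 nm); experiments are done three times.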

For the compound `CC[C@H](C)[C@H](NC(=O)[C@H](CO)NC(=O)[C@H](CCC(=O)O)NC(=O)[C@H](Cc1c[nH]c2ccccc12)N(C)C(=O)[C@@H](N)Cc1c[nH]c2ccccc12)C(=O)N[C@@H](CC(C)C)C(=O)N[C@@H](CC(=O)O)C(=O)N[C@@H](CCC(=O)O)C(=O)N[C@@H](Cc1c[nH]cn1)C(=O)N[C@H](C(=O)N[C@@H](CCC(N)=O)C(=O)N[C@@H](CCCNC(=N)N)C(=O)N[C@H](C(=O)N[C@@H](Cc1c[nH]c2ccccc12)C(=O)NCC(N)=O)C(C)C)C(C)C` [compound 36] (HELM PEPTIDE1{W.[meW].E.S.I.L.D.E.H.V.Q.R.V.W.G.[am]}$$$$V2.0), the EC50 in assay [1] is over 30 µM. In assay [2], the “β-Cat FP Hill slope” value worked out at 0.87 and the Kd is under 0.4 µM.
For the compound `CC[C@H](C)[C@@H]1NC(=O)[C@@H](NC(=O)[C@H](CCC(N)=O)NC(=O)[C@H](C)N(C)C(=O)[C@H](Cc2c[nH]c3ccccc23)NC(C)=O)CCCCNC(=O)CC[C@@H](C(=O)N[C@@H](Cc2c[nH]cn2)C(=O)N[C@H](C(=O)N[C@@H](CCC(N)=O)C(=O)N[C@@H](CCCNC(=N)N)C(=O)N[C@H](C(=O)N[C@@H](Cc2c[nH]c3ccccc23)C(=O)NCC(N)=O)C(C)C)C2CCCCC2)NC(=O)[C@H](CC(=O)O)NC(=O)[C@H](CC(C)C)NC1=O` [compound 404] (HELM PEPTIDE1{[ac].W.[meA].Q.K.I.L.D.E.H.[O=C([C@@H](N[*:1])C1CCCCC1)[*:2]].Q.R.V.W.G.[am]}$PEPTIDE1,PEPTIDE1,5:R3-9:R3$$$V2.0), the EC50 in assay [1] was over 30 µM. In assay [2], the “β-Cat FP Hill slope” value turned out to be 0.79 and the Kd was under 0.4 µM.
Consider `CC[C@H](C)[C@@H]1NC(=O)[C@@H](NC(=O)[C@H](CCC(N)=O)NC(=O)[C@@H]2CCCCN2C(=O)[C@H](Cc2c[nH]c3ccccc23)NC(C)=O)CCCCNC(=O)CC[C@@H](C(=O)N[C@@H](Cc2c[nH]cn2)C(=O)N[C@H](C(=O)N[C@@H](CCC(N)=O)C(=O)N[C@@H](CCCNC(=N)N)C(=O)N[C@H](C(=O)N[C@@H](Cc2c[nH]c3ccccc23)C(=O)NCC(N)=O)C(C)C)C2CCCCC2)NC(=O)[C@H](CC(=O)O)NC(=O)[C@H](CC(C)C)NC1=O` [compound 442] (HELM PEPTIDE1{[ac].W.[O=C([C@@H]1CCCCN1[*:1])[*:2]].Q.K.I.L.D.E.H.[O=C([C@@H](N[*:1])C1CCCCC1)[*:2]].Q.R.V.W.G.[am]}$PEPTIDE1,PEPTIDE1,5:R3-9:R3$$$V2.0), for which the EC50 in assay [1] was under 7.5 µM. For the same compound, in assay [2], the “β-Cat FP Hill slope” value is given as 1.51 and the Kd is under 0.4 µM.
For `CC[C@H](C)[C@H](NC(=O)C(C)(CO)NC(=O)[C@H](CCC(=O)O)NC(=O)[C@H](Cc1c[nH]c2ccccc12)N(C)C(=O)[C@@H](N)Cc1c[nH]c2ccccc12)C(=O)N[C@@H](CC(C)C)C(=O)N[C@@H](CC(=O)O)C(=O)N[C@@H](CCC(=O)O)C(=O)N[C@@H](Cc1c[nH]cn1)C(=O)N[C@H](C(=O)N[C@@H](CCC(N)=O)C(=O)N[C@@H](CCCNC(=N)N)C(=O)N[C@H](C(=O)N[C@@H](Cc1c[nH]c2ccccc12)C(=O)NCC(N)=O)C(C)C)C(C)C` (some centres unmarked) [compound 40] (HELM PEPTIDE1{W.[meW].E.[CC(CO)(N[*:1])C(=O)[*:2]].I.L.D.E.H.V.Q.R.V.W.G.[am]}$$$$V2.0), in that order: over 30 µM, 0.88 and under 0.4 µM.
In assay [1], `CCCCCCCCCCCC(=O)N[C@@H](Cc1c[nH]c2ccccc12)C(=O)N(C)[C@@H](C)C(=O)N[C@@H](CCC(N)=O)C(=O)N[C@H]1CCCCNC(=O)CC[C@@H](C(=O)N[C@@H](Cc2c[nH]cn2)C(=O)N[C@H](C(=O)N[C@H]2CCC(=O)NCCCC[C@@H](C(N)=O)NC(=O)[C@H](Cc3c[nH]c4ccccc34)NC(=O)[C@H](C(C)C)NC(=O)[C@H](CC(=O)O)NC2=O)C2CCCCC2)NC(=O)[C@H](CC(=O)O)NC(=O)[C@H](CC(C)C)NC(=O)[C@H]([C@@H](C)CC)NC1=O` [compound 465] (HELM PEPTIDE1{[CCCCCCCCCCCC(=O)[*:2]].W.[meA].Q.K.I.L.D.E.H.[O=C([C@@H](N[*:1])C1CCCCC1)[*:2]].E.D.V.W.K.[am]}$PEPTIDE1,PEPTIDE1,5:R3-9:R3|PEPTIDE1,PEPTIDE1,12:R3-16:R3$$$V2.0; bridges inferred) showed an EC50 of under 7.5 µM. In assay [2], the “β-Cat FP Hill slope” value turned out to be 0.7.
The compound `CC[C@H](C)[C@H](NC(=O)[C@H](CO)NC(=O)[C@H](CCC(=O)O)NC(=O)[C@@H]1CCCN1C(=O)[C@H](CC(C)C)NC(=O)[C@H](CCCNC(=N)N)NC(=O)CCNC(C)=O)C(=O)N[C@@H](CC(C)C)C(=O)N[C@@H](CC(=O)O)C(=O)N[C@@H](CCC(=O)O)C(=O)N[C@@H](Cc1c[nH]cn1)C(=O)N[C@H](C(=O)N[C@@H](CCC(N)=O)C(=O)N[C@@H](CCCNC(=N)N)C(=O)N[C@H](C(=O)N[C@@H](Cc1c[nH]c2ccccc12)C(=O)N1CCC[C@H]1C(N)=O)C(C)C)C(C)C` [compound 413] (HELM PEPTIDE1{[ac].[bAla].R.L.P.E.S.I.L.D.E.H.V.Q.R.V.W.P.[am]}$$$$V2.0) returned an EC50 in assay [1] of over 30 µM. Besides, in assay [2], the “β-Cat FP Hill slope” value worked out at 0.7 and the Kd was under 0.4 µM.
For `CC[C@H](C)[C@H](NC(=O)[C@H](CO)NC(=O)[C@H](CCC(=O)O)NC(=O)[C@H](Cc1c[nH]c2ccccc12)N(C)C(=O)[C@H](Cc1c[nH]c2ccccc12)NC)C(=O)N[C@@H](CC(C)C)C(=O)N[C@@H](CC(=O)O)C(=O)N[C@@H](CCC(=O)O)C(=O)N[C@@H](Cc1c[nH]cn1)C(=O)N[C@H](C(=O)N[C@@H](CCC(N)=O)C(=O)N[C@@H](CCCNC(=N)N)C(=O)N[C@H](C(=O)N[C@@H](Cc1c[nH]c2ccccc12)C(=O)NCC(N)=O)C(C)C)C(C)C` [compound 37] (HELM PEPTIDE1{[meW].[meW].E.S.I.L.D.E.H.V.Q.R.V.W.G.[am]}$$$$V2.0), in that order: over 30 µM, 0.7 and under 0.4 µM.
For `CC[C@H](C)[C@@H]1NC(=O)[C@@H](NC(=O)[C@H](CCC(N)=O)NC(=O)[C@H](C)N(C)C(C)=O)CCCCNC(=O)CC[C@@H](C(=O)N[C@@H](Cc2c[nH]cn2)C(=O)N[C@H](C(=O)N[C@@H](CCC(N)=O)C(=O)N[C@@H](CCCNC(=N)N)C(=O)N[C@H](C(=O)N[C@@H](Cc2c[nH]c3ccccc23)C(N)=O)C(C)C)C2CCCCC2)NC(=O)[C@H](CC(=O)O)NC(=O)[C@H](CC(C)C)NC1=O` [compound 445] (HELM PEPTIDE1{[ac].[meA].Q.K.I.L.D.E.H.[O=C([C@@H](N[*:1])C1CCCCC1)[*:2]].Q.R.V.W.[am]}$PEPTIDE1,PEPTIDE1,4:R3-8:R3$$$V2.0), in that order: 22.5 to 30 µM, 0.7 and under 0.4 µM.
On the same counts, the results for `CC[C@H](C)[C@H](NC(=O)[C@H](CO)NC(=O)[C@H](CCC(=O)O)NC(=O)[C@@H]1CCCN1C(=O)[C@H](CC(C)C)NC(=O)[C@H](CCCNC(=N)N)NC(=O)CCN)C(=O)N[C@@H](CC(C)C)C(=O)N[C@@H](CC(=O)O)C(=O)N[C@@H](CCC(=O)O)C(=O)N[C@@H](Cc1c[nH]cn1)C(=O)N[C@H](C(=O)N[C@@H](CCC(N)=O)C(=O)N[C@@H](CCCNC(=N)N)C(=O)N[C@H](C(=O)N[C@@H](Cc1c[nH]c2ccccc12)C(=O)N1CCC[C@H]1C(N)=O)C(C)C)C(C)C` [compound 410] (HELM PEPTIDE1{[bAla].R.L.P.E.S.I.L.D.E.H.V.Q.R.V.W.P.[am]}$$$$V2.0) are over 30 µM, 1.6 and 0.4 to 1 µM.

For the origin of these results see patent US12441768B2, “Compositions and methods for treating endometriosis” (EndoMet Biosciences, Inc., priority 2018, dated 2025).
